Data: article PMC11181486, “Nonsymmetrically Substituted 1,1′-Biphenyl-Based Small Molecule Inhibitors of the PD-1/PD-L1 Interaction” (ACS Medicinal Chemistry Letters, 2024)

system: not listed separately; assay: Solubility of the compounds (visual evaluation and A600 of dilutions); format: physicochemical; conditions: absorbance at 600 nm, 96-well plate; blank 0.0472; values in parentheses unreliable (precipitate)
Experimental: compound was 500 nM). The dilutions were then visually evaluated according to the following […]
+++ clear solution, no precipitation
++ slight turbidity, no precipitate
+ visible turbidity, no precipitate.
+/- strong turbidity, no precipitation.
- visible precipitation and/or visible precipitation in the original 100% DMSO solution.
The dilutions prepared in this way were applied to a 96-well plate and the absorbance measured […]
at a wavelength of 600 nm.
Table S2, Blank of 10 Measurements.
Table S2. Solubility of the compounds

Compound	A600 measurement (averaged from 2 reps)
Cc1c(NC(=O)c2ccc(CNCCCO)cn2)cccc1-c1cccc(NC(=O)c2ccc(CN3CCC(O)CC3)cn2)c1C [Compound 9]	0.09395
Cc1c(NC(=O)c2ccc(CN[C@@H](C)CO)cn2)cccc1-c1cccc(NC(=O)c2ccc(CN3CCC(O)CC3)cn2)c1C [Compound 10]	0.1308
Cc1c(NC(=O)c2ccc(CN[C@@H]3CCC[C@H]3O)cn2)cccc1-c1cccc(NC(=O)c2ccc(CN3CCC(O)CC3)cn2)c1C [Compound 11]	0.1117
Cc1c(NC(=O)c2ccc(CNCCCO)cn2)cccc1-c1cccc(NC(=O)c2ccc(CN[C@@H]3CCC[C@H]3O)cn2)c1C [Compound 12]	0.0476
Cc1c(NC(=O)c2ccc(CN[C@@H](C)CO)cn2)cccc1-c1cccc(NC(=O)c2ccc(CN[C@@H]3CCC[C@H]3O)cn2)c1C [Compound 13]	0.1827
Cc1c(NC(=O)c2ccc(CNCCCO)cn2)cccc1-c1cccc(NC(=O)c2ccc(CN[C@@H](C)CO)cn2)c1C [Compound 14]	0.05315
Cc1c(NC(=O)c2ccc(CNCCO)cn2)cccc1-c1cccc(NC(=O)c2ccc(CNCCNS(C)(=O)=O)cn2)c1C [Compound 16]	0.0494
Cc1c(NC(=O)c2ccc(CNCCO)cn2)cccc1-c1cccc(NC(=O)c2ccc(CNCCCNS(C)(=O)=O)cn2)c1C [Compound 17]	0.2217

same assay, conditions: kinetic from dmso stock; dilutions from DMSO stock, visually evaluated

Compound	solubility [µM]
Cc1c(NC(=O)c2ccc(CNCCCO)cn2)cccc1-c1cccc(NC(=O)c2ccc(CN3CCC(O)CC3)cn2)c1C [Compound 9]	< 500
Cc1c(NC(=O)c2ccc(CN[C@@H](C)CO)cn2)cccc1-c1cccc(NC(=O)c2ccc(CN3CCC(O)CC3)cn2)c1C [Compound 10]	< 500
Cc1c(NC(=O)c2ccc(CN[C@@H]3CCC[C@H]3O)cn2)cccc1-c1cccc(NC(=O)c2ccc(CN3CCC(O)CC3)cn2)c1C [Compound 11]	< 500
Cc1c(NC(=O)c2ccc(CNCCCO)cn2)cccc1-c1cccc(NC(=O)c2ccc(CN[C@@H]3CCC[C@H]3O)cn2)c1C [Compound 12]	> 500
Cc1c(NC(=O)c2ccc(CN[C@@H](C)CO)cn2)cccc1-c1cccc(NC(=O)c2ccc(CN[C@@H]3CCC[C@H]3O)cn2)c1C [Compound 13]	< 500
Cc1c(NC(=O)c2ccc(CNCCCO)cn2)cccc1-c1cccc(NC(=O)c2ccc(CN[C@@H](C)CO)cn2)c1C [Compound 14]	> 500
Cc1c(NC(=O)c2ccc(CNCCO)cn2)cccc1-c1cccc(NC(=O)c2ccc(CNCCNS(C)(=O)=O)cn2)c1C [Compound 16]	> 500
Cc1c(NC(=O)c2ccc(CNCCO)cn2)cccc1-c1cccc(NC(=O)c2ccc(CNCCCNS(C)(=O)=O)cn2)c1C [Compound 17]	< 500

target: T1, PD-1/PD-L1 (Homo sapiens, UniProt Q9NZQ7); assay: Homogeneous time-resolved fluorescence (HTRF) PD-1/PD-L1 assay (CisBio kit); format: binding; parameters: Tag1 or Tag2 (kit's undisclosed tag); purchased CisBio; conditions: 2 h, at the 5 nM concentration of the inhibitor; 5 nM hPD-L1, 50 nM hPD-1; read-out: HTRF Fraction of the undissociated protein complex
Experimental: The certified CisBio kit was used to conduct the HTRF assay, adhering to the manufacturer’s guidelines. The assay setup comprised hPD-1, hPD-L1, anti-Tag1 tagged with Europium cryptate (HTRF donor), and anti-Tag2 tagged with XL665 (HTRF acceptor). The experiments utilized final concentrations of 5 nM hPD-L1 and 50 nM hPD-1 in a 20 μL total volume performed in triplicate. Per the CisBio instructions, all components were combined, the plate was incubated at ambient temperature for 2 h, and the TR-FRET (time-resolved fluorescence energy transfer) was carried out using the Tecan Spark 20M. The negatives in the acquired data were subtracted for background, the positives were standardized, and then the data were averaged.
of 50 mM of the compound. Samples were then diluted to 50 nM and used for measurements.
Target sequence in this assay (Q9NZQ7 19-238 limits assumed): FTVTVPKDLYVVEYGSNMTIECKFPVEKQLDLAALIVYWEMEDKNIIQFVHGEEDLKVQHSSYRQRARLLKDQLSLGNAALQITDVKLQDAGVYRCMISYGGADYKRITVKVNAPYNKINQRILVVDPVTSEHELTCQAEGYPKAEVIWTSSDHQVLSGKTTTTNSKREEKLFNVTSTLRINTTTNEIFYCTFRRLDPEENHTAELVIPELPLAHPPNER

Compound	remaining activity at 0.005 µM [%]
Cc1c(NC(=O)c2ccc(CNCCO)cn2)cccc1-c1cccc(NC(=O)c2ccc(CNCCO)cn2)c1C [Cmpd A, reference compound]	18
Cc1c(NC(=O)c2ccc(CNCCCO)cn2)cccc1-c1cccc(NC(=O)c2ccc(CN3CCC(O)CC3)cn2)c1C [Compound 9]	26
Cc1c(NC(=O)c2ccc(CN[C@@H](C)CO)cn2)cccc1-c1cccc(NC(=O)c2ccc(CN3CCC(O)CC3)cn2)c1C [Compound 10]	30
Cc1c(NC(=O)c2ccc(CN[C@@H]3CCC[C@H]3O)cn2)cccc1-c1cccc(NC(=O)c2ccc(CN3CCC(O)CC3)cn2)c1C [Compound 11]	43

same assay, conditions: at the 5 nM concentration of the inhibitor; 5 nM hPD-L1, 50 nM hPD-1

Compound	HTRF Fraction of the undissociated protein complex
Cc1c(COc2cc(OCc3cccc(C#N)c3)c(CN3C[C@H](O)C[C@@H]3C(=O)O)cc2Cl)cccc1-c1ccc2c(c1)OCCO2 [BMS-1166, reference compound]	0.59

target: T1, PD-1/PD-L1; assay: cell-based; parameters: host or cells: PD-L1+ aAPC/CHO-K1 cells; PD-1 effector Jurkat cells; conditions: not given
Experimental: The PD-1/PD-L1 immune checkpoint bioassay (PD-1/PD-L1 Bioassay, Promega) was conducted according to the manufacturer’s protocol. PD-L1+ aAPC/CHO-K1 cells were seeded at a density of […] in 100 μL of medium [Ham’s F12, 10% fetal bovine serum (FBS)] in 96-well white flat-bottomed plates and incubated overnight at 37 °C in the presence of 5% CO2. The next day, the medium was removed, and serial dilutions of small molecule inhibitors were added at 40 μL per well in assay buffer (RPMI1640 + 1% FBS + 1% DMSO). […] The cells were cocultured for 6 h at 37 °C with 5% CO2 followed by a 5 min equilibration at room temperature. Bio-Glo Reagent (Promega) was prepared and added at 80 μL per well. After a 15 min incubation at room temperature, luminescence was measured using a Tecan Spark microplate reader. Data are presented as fold induction of luminescence relative to DMSO-treated cells. EC50 values were calculated using the log(inhibitor) vs response variable slope (four-parameter) analysis model with GraphPad Prism software.
Target sequence in this assay (Q9NZQ7 19-290): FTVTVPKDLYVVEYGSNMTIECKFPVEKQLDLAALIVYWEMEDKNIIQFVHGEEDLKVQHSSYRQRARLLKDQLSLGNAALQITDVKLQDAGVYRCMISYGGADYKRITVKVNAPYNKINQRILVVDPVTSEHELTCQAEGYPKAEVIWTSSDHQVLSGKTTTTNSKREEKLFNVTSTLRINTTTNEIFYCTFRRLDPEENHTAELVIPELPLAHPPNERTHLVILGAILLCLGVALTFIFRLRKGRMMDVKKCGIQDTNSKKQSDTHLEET

Compound	EC50 [nM]
Cc1c(NC(=O)c2ccc(CNCCCO)cn2)cccc1-c1cccc(NC(=O)c2ccc(CN3CCC(O)CC3)cn2)c1C [Compound 9]	> 180
Cc1c(NC(=O)c2ccc(CN[C@@H](C)CO)cn2)cccc1-c1cccc(NC(=O)c2ccc(CN3CCC(O)CC3)cn2)c1C [Compound 10]	> 180
Cc1c(NC(=O)c2ccc(CN[C@@H]3CCC[C@H]3O)cn2)cccc1-c1cccc(NC(=O)c2ccc(CN3CCC(O)CC3)cn2)c1C [Compound 11]	> 180

same assay, conditions: PD-L1+ aAPC/CHO-K1 cells cocultured 6 h with PD-1 effector Jurkat cells; read-out: PD-1/PD-L1 blockade, NFAT reporter bioassay EC50

Compound	EC50 [nM]
Cc1c(NC(=O)c2ccc(CNCCO)cn2)cccc1-c1cccc(NC(=O)c2ccc(CNCCO)cn2)c1C [Cmpd A, reference compound]	14.7
Cc1c(NC(=O)c2ccc(CNCCCO)cn2)cccc1-c1cccc(NC(=O)c2ccc(CN3CCC(O)CC3)cn2)c1C [Compound 9]	188
Cc1c(NC(=O)c2ccc(CN[C@@H](C)CO)cn2)cccc1-c1cccc(NC(=O)c2ccc(CN3CCC(O)CC3)cn2)c1C [Compound 10]	287
Cc1c(NC(=O)c2ccc(CN[C@@H]3CCC[C@H]3O)cn2)cccc1-c1cccc(NC(=O)c2ccc(CN3CCC(O)CC3)cn2)c1C [Compound 11]	553
Cc1c(NC(=O)c2ccc(CNCCO)cn2)cccc1-c1cccc(NC(=O)c2ccc(CNCCCNS(C)(=O)=O)cn2)c1C [Compound 17]	65.8

target: T1, PD-1/PD-L1; assay: not given; parameters: host or cells: PD-L1+ aAPC/CHO-K1 cells; PD-1 effector Jurkat cells; conditions: Figure S2B; ref Koblish et al.; cited from earlier work
Target sequence in this assay (Q9NZQ7 19-290): as above

Compound	EC50 [nM]
Cc1c(Nc2nccc3cc(CN4CC[C@@H](O)C4)cnc23)cccc1-c1cccc(-c2nc3cc(CN4CC[C@@H](C(=O)O)C4)cc(C#N)c3o2)c1C [INCBO86550]	21.4

target: T2, hPD-L1 (human PD-L1) (Homo sapiens, UniProt Q9NZQ7); assay: 1H NMR titration with hPD-L1; format: binding; conditions: molar ratio protein to compound 1:1
T2 construct: The human PD-L1 IgV domain (residues 18–134, C-terminal His-tag) was expressed and purified; His-tag (C); made in house
T2 sequence (Q9NZQ7 18-134): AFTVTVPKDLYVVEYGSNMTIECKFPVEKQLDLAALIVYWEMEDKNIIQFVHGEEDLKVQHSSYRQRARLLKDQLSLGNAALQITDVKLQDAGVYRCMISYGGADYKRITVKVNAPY
Experimental: Representative molecules were evaluated for their interaction with PD-L1 by means of an ^1H NMR titration experiment.

Compound	effect on hPD-L1 1H NMR lines (broadening)
Cc1c(NC(=O)c2ccc(CNCCCO)cn2)cccc1-c1cccc(NC(=O)c2ccc(CN[C@@H](C)CO)cn2)c1C [Compound 14]	oligomerization
Cc1c(NC(=O)c2ccc(CNCCO)cn2)cccc1-c1cccc(NC(=O)c2ccc(CNCCCNS(C)(=O)=O)cn2)c1C [Compound 17]	oligomerization
